The text below walks through data of US8933019B2, “Antiviral cell-penetrating peptides” (priority 2008, dated 2015).

By IC50 is commonly meant the concentration that inhibits the measured activity by half. In general, CC50 refers to the concentration at which the toxic effect on the cells reaches its halfway point.

For one data set, the system named is HIV-1 RU570. As to the kind of experiment: Inhibition of primary HIV-1 isolate, p24 ELISA, PBMC. The class given is cell-based. The following applies: subtype G, coreceptor R5, read-out: IC50 (μM ± SD), HIV-1 RU570. The procedure:
(§1) The inhibitory activity of peptides on infection by primary HIV-1 isolates was determined as previously described (Jiang et al., Antimicrob. Agents Chemother. 48:4349-4359, 2004). Peripheral blood mononuclear cells (PBMCs) were isolated from the blood of healthy donors at the New York Blood Center by standard density gradient centrifugation using Histopaque-1077 (Sigma-Aldrich). The cells were cultured at 37° C. for 2 hr. Nonadherent cells were collected and resuspended at 5×10^6 cells/ml RPMI-1640 medium containing 10% FBS, 5 μg/ml PHA, and 100 U/ml IL-2 (Sigma-Aldrich), followed by incubation at 37° C. for 3 days. The PHA-stimulated cells (5×10^4 cells/well) were infected with primary HIV-1 isolates at 500 TCID50 (0.01 MOI) in the absence or presence of peptide inhibitor at graded concentrations. Culture media were changed every 3 days and replaced with fresh media containing freshly prepared inhibitor. The supernatants were collected 7 days post-infection and tested for p24 antigen by ELISA (FIG. 6). The percent inhibition of p24 production, IC50 and IC90 values were calculated by the GraphPad Prism software (GraphPad Software Inc.).
(§2) NYAD-201, NYAD-202 and NYAD-203 were also tested against a set of primary HIV-1 isolates in PBMC representing mostly group M and one from group O with diverse coreceptor usage. […] The inhibitory activities of the peptides against this diverse range of primary isolates were similar, indicating its effectiveness against a wide range of HIV-1 isolates.
(An ELISA detects its analyte on a solid surface through an enzyme-linked reagent.)

In a further data set the test system is HIV-1 93IN101. The description is as above. The data set is classed as cell-based. The following applies: subtype C, coreceptor R5, read-out: IC50 (μM ± SD), HIV-1 93IN101. As to the method:
as §1, §2

A further data set concerns HIV-1 92UG029. Described as above. The following applies: subtype A, coreceptor X4, read-out: IC50 (μM ± SD), HIV-1 92UG029. The class given is cell-based. The procedure:
as §1, §2

In another data set the test system is HIV-1 93RW024. The description is as above. The class given is cell-based. The following applies: subtype A, coreceptor R5X4, read-out: IC50 (μM ± SD), HIV-1 93RW024. The procedure: as §1, §2
A further data set relates to HIV-1 CMU02. The data set is described as above. The class given is cell-based. The following applies: subtype EA, coreceptor X4, read-out: IC50 (μM ± SD), HIV-1 CMU02. As to the method: as §1, §2
A further data set deals with HIV-1 BCF02. The data set is described as above. The data set is classed as cell-based. The following applies: (Group 0), coreceptor R5, read-out: IC50 (μM ± SD), HIV-1 BCF02. As to the method: as §1, §2
For another data set, the system named is HIV-1 98CN009. The data set is described as above. The data set is classed as cell-based. The following applies: subtype C, coreceptor R5, read-out: IC50 (μM ± SD), HIV-1 98CN009. As to the method:
as §1, §2

In a further data set the test system is HIV-1 93BR020. Described as above. The following applies: subtype F, coreceptor R5X4, read-out: IC50 (μM ± SD), HIV-1 93BR020. The data set is classed as cell-based. The procedure:
as §1, §2

The next data set relates to HIV-1 92US657. The data set is described as above. The note with it: subtype B, coreceptor R5, read-out: IC50 (μM ± SD), HIV-1 92US657. The class given is cell-based. The procedure:
as §1, §2

Another data set has as its system HIV-1 BaL. The class given is cell-based. The following applies: laboratory strain, subtype B, PBMC, coreceptor R5; read-out: IC50 (μM ± SD), HIV-1 BaL. The procedure:
as §1
(§3) In addition, NYAD-201, NYAD-202 and NYAD-203 were also tested using several laboratory-adapted and primary isolates in MT-2 cells and PBMC (peripheral blood mononuclear cells), respectively. The inhibition of p24 production in MT-2 cells by NYAD-201 and its analogs were measured over a range of concentrations and the concentration required to inhibit 50% (IC50) of the p24 production was calculated. […] NYAD-201 and its analogs inhibited the laboratory strains with low μM potency (IC50˜2-8 μM), and both R5- and X4-tropic viruses were inhibited with similar potency.

The test system of a further data set is HIV-1 89.6. The class given is cell-based. The following applies: laboratory strain, subtype B, PBMC, coreceptor R5X4; read-out: IC50 (μM ± SD), HIV-1 89.6. As to the method: as §1, §3
Another data set relates to Jurkat cells. Nature of the data set: Cytotoxicity, LDH leakage, Jurkat cells. The class given is cell-based. The note with it: 30 min, 2 hr and 4 hr of exposure. The procedure:
(§4) Cytotoxicity was also evaluated in Jurkat cells using a Promega LDH leakage detection kit. Jurkat cells were plated at 10^4 cells/well in a volume of 200 μl. The test was performed after 30 min, 2 hr and 4 hr of exposure to the NYAD-201, NYAD-202 and NYAD-203 compounds.
Background: LDH in the medium is a marker of cell lysis.

Data set [1] in a line: Cytotoxicity, XTT method, MT-2 cells. The class given is cell-based, human. The note with it: human, read-out: CC50 (μM) ± SD, cytotoxicity in MT-2 cells. The procedure:
(§5) Cytotoxicity of peptides in MT-2 cells and PBMC was measured by the XTT [(sodium 3′-(1-(phenylamino)-carbonyl)-3,4-tetrazolium-bis(4-methoxy-6-nitro) bezenesulfonic acid hydrate)] method as previously described (Jiang et al., 2004). Briefly, for MT-2 cells, 100 μl of a peptide at graded concentrations was added to an equal volume of cells (1×10^5 cells/ml) in 96-well plates followed by incubation at 37° C. for 4 days, which ran parallel to the neutralization assay in MT-2 (except medium was added instead of virus). In the case of PBMC, 5×10^5 cells/ml were used and the cytotoxicity was measured after 7 days. After addition of XTT (PolySciences, Inc.), the soluble intracellular formazan was quantitated colorimetrically at 450 nm 4 hr later with a reference at 620 nm. The percent of cytotoxicity and the CC50 values were calculated as above (Table 2 and Table 3).
On the technique in general: Tetrazolium assays rely on reduction of a dye to a coloured formazan, in cell work by metabolically active cells.

In the next data set the test system is MT-2 cells. As to the kind of experiment: Cytotoxicity, XTT method, MT-2 cells. The following applies: 4 days. The class given is cell-based, human. The procedure: as §5
Data set [2] is described as follows: Solubility, observation in the Jurkat cytotoxicity test. The class given is physicochemical. As to the method:
as §4

Data set [3] is described as follows: Cytotoxicity, XTT method, PBMC. The following applies: human. The data set is classed as cell-based. The procedure: as §5

Bridge positions count the residues as written; N and C are the ends. Square brackets hold non-standard residues; d marks the D form. Peptide text beside a SMILES is read from it. S5 = C=CCCC[C@](C)(N)C(=O)O A value given as a limit tells only on which side of the number the result lay.

Turning to `CSCC[C@@H]1NC(=O)[C@H](Cc2c[nH]c3ccccc23)NC(=O)[C@@](C)(NC(=O)[C@H](CCCCN)NC(=O)[C@@H](NC(=O)[C@H](CCC(=O)O)NC(=O)[C@H](CCC(N)=O)NC(=O)[C@H](C)N)C(C)C)CCCC=CCCC[C@@](C)(C(=O)N[C@H](C(=O)N[C@@H](CC(C)C)C(=O)N[C@@H](CC(C)C)C(=O)N[C@H](C(=O)N[C@@H](C)C(N)=O)C(C)C)[C@@H](C)O)NC(=O)[C@H]([C@@H](C)O)NC1=O` [NYAD-201, AQEVKXWMTXTLLVA] (H-AQEVK[S5]WMT[S5]TLLVA-NH2; staple 6-10), the IC50 was determined as 7.48 ± 1.21 µM with HIV-1 RU570; 1.58 ± 0.57 µM in the data set with HIV-1 93IN101; 7.88 ± 1.01 µM with HIV-1 92UG029; 9.88 ± 0.3 µM in the data set with HIV-1 93RW024; 7.36 ± 0.69 µM with HIV-1 CMU02; 15.8 ± 3.43 µM in the data set on HIV-1 BCF02. The IC50 was 5.31 ± 0.83 µM in the data set with HIV-1 98CN009; 2.78 ± 0.57 µM with HIV-1 93BR020; 6.72 ± 0.98 µM in the data set on HIV-1 92US657; 4.73 ± 1.92 µM with HIV-1 BaL; 5.21 ± 0.87 µM with HIV-1 89.6. In the data set with Jurkat cells, the “Cytotoxicity in Jurkat cells (LDH leakage)” value is recorded as “did not demonstrate toxicity”. For the same compound, the CC50 at 4 days in data set [1] is more than 115 µM. In addition, the CC50 in the data set on MT-2 cells was more than 115 µM. In addition, in [2], the Solubility entry is reported as “not very soluble”. In data set [3], this compound returned a CC50 at 7 days of more than 115 µM.
